One series addresses PSMA. Set-up: method as in PMID 25883127. As to conditions: cited from earlier work.
Series [1] is described as follows: Plasma stability (ex vivo) and protein binding in mouse serum/plasma. It counts as in vitro ADME. As to conditions: incubation of free 64Cu(OAc)2 in mouse plasma. How it is done:
Plasma stability studies were carried out by incubating ^64Cu-DOTHA2-PSMA (50 MBq in 250 μL PBS buffer) in 250 μL of mouse serum at 37 °C for up to 24 h. The plasma was then mixed twice with ethanol (1:1) to precipitate all the proteins. The samples were subjected to vortex mixing for 1 min and then centrifugation for 10 min at 7000 rpm. Plasma proteins were separated from the soluble component by ultracentrifugation and the radioactivity was assessed. The supernatant fraction was assayed by radio-TLC on C18 plates and by UPLC; free ^64Cu(OAc)2 and ^64Cu-DOTHA2-PSMA were used as standards. The radio-TLCs were eluted with 0.1 M sodium citrate buffer at pH 5.5 using an Instant Imager system (BioScan, DC, U.S.A.) for radiodetection. The precipitated proteins were again subjected to 10% TFA, vortexed for 2–3 min, and then centrifuged for 10 min at 7000 rpm. The separation and analysis for the supernatant and the proteins were performed in the same manner.
The protein binding ability was evaluated by incubating ^64Cu-DOTHA2-PSMA (100 MBq) in phosphate buffer (250 μL, pH 7) at 37 °C and fresh mouse serum (250 μL) and for 1 h, 4 h, and 24 h. Plasma proteins were precipitated by the addition of ethanol (1:1, v/v) to the plasma samples, followed by centrifugation at 7000 rpm for 5 min at room temperature and separation of the supernatant. This process was repeated three times with the same volume of ethanol, and the supernatants were pooled. The radioactivity content of the supernatant and the precipitated protein were measured in a dose calibrator to obtain the protein binding percentage.

On the set-up of series [2]: method as in PMID 29088775, doi:10.1515/ract-2016-2632. Conditions: cited from earlier work.
The conditions of series [3]: cited from earlier work.
For another series, the system named is LNCaP cells. Briefly: Cellular efflux assay. As to conditions: 1h incubation. It counts as cell-based, human. How it is done:
Here, 12-well polylysine-coated Cellbind plates were seeded with 150 × 10^3 LNCaP cells with 1.75 mL of cell media. At 70–100% confluence (3 days of growth), the cell medium was changed and 37 kBq of ^64Cu-DOTHA2-PSMA in 1 mL of cell medium was added to each well of group 1 and 160 kBq to each of group 2.
For efflux assays, after adding ^64Cu-DOTHA2-PSMA, cells were incubated for 60 min for the time points 15 min to 4 h (group 1) and incubated for 4 h for the time points 4 h to 48 h (group 2). After incubation, the medium was removed, cells were washed with 1 mL of cold PBS, 1 mL of cell media was added and, similarly to uptake and internalization, cells were again incubated in nonradioactive media for 0, 15, 30, 45, 60 min, 2 h, 4 h (group 1) and 4 h, 8 h, 24 h, 32 h or 48 h (group 2) (3 wells per time point). After respective incubation times per well, the medium was removed, and cells were washed with 1 mL of cold PBS, then removed from the well with 1 mL of trypsin to measure the residual radioactivity by gamma counter. The results of residual activity were expressed as percentage of the 1 h (Group 1) or 4 h (Group 2) uptake activity (0 min of efflux time-point) as a function of time for 10^6 cells.
All the assays were performed at least 3 times, each with different ^64Cu-DOTHA2-PSMA production and cell passage. Cells were counted in 3 wells for each protocol (uptake, internalization, and efflux) on day 1 and day 3 of each experiment and an average for cells numbers at day 2.

Series [4] is described as follows: Balb/c mice biodistribution. It counts as in vivo. As to conditions: 2 h p.i. How it is done:
^64Cu-DOTHA2-PSMA biodistribution was assessed in balb/c mice (n = 30) by harvesting blood and organs at 1 h, 2 h, 4 h, 24 h, and 48 h p.i. to measure tissue radioactivity and weight. Results were reported as the %IA/g of tissue and compared with the radiotracer used for clinical imaging in our facility, ^68Ga-PSMA-617.
Balb/c mice (n = 30) were injected with a bolus of ^64Cu-DOTHA2-PSMA by the tail vein (in 0.3 mL of saline: 3 MBq for 1 h, 2 h, and 4 h p.i., 7.5 MBq for 24 h p.i. and 21 MBq for 48 h p.i.). Injected activity had to be increased for later time points to ensure reliable detection and reliability in organs with a low uptake, e.g., the brain. At all timepoints, blood was collected using a heparin-coated syringe by femoral vein puncture and mice were then euthanized and dissected. Harvested tissues were rinsed, blotted dry, and then weighted and counted in gamma counter. The results are reported as the %IA per gram of tissue. The biodistribution results were compared with the ^68Ga-PSMA-617 results obtained by our team at 1 h and 2 h p.i.

Series [5] concerns the target T1, PSMA on the LNCaP human prostate cell line (Homo sapiens, UniProt Q04609).
T1 construct: Human prostate adenocarcinoma LNCaP PSMA-expressing cells were purchased from American Type Culture Collection; host or cells: LNCaP human prostate adenocarcinoma cells
The series can be described thus: Cellular competition assay. Format: binding. As to the method:
Here, 12-well polylysine-coated Cellbind plates were seeded with 150 × 10^3 LNCaP cells. […] […] Cells were then incubated for 1 h, after which the medium was removed, cells were washed once with 1 mL of cold PBS, and then 1 mL of trypsin was added to collect cells for radioactivity measurement by gamma-counter. The assays were performed in triplicate, each time with independent ^64Cu-DOTHA2-PSMA production and cell seedings. IC50 was calculated using GraphPad Prism 9 one site fit logIC50.

The values that follow come from PMC9412875, “^64Cu-DOTHA2-PSMA, a Novel PSMA PET Radiotracer for Prostate Cancer with a Long Imaging Time Window” (Pharmaceuticals, 2022).

Like-named read-outs stand apart in the source and are kept apart here.

A word on the Ki: it is a dissociation constant, usually derived from enzyme kinetics or from competition with a known ligand. As usually defined, the log D is the decadic logarithm of the distribution of all forms, ionised or not, between an organic phase and buffer at a given pH. By IC50 is commonly meant the concentration that inhibits the measured activity by half.

T1 sequence (Q04609 whole entry): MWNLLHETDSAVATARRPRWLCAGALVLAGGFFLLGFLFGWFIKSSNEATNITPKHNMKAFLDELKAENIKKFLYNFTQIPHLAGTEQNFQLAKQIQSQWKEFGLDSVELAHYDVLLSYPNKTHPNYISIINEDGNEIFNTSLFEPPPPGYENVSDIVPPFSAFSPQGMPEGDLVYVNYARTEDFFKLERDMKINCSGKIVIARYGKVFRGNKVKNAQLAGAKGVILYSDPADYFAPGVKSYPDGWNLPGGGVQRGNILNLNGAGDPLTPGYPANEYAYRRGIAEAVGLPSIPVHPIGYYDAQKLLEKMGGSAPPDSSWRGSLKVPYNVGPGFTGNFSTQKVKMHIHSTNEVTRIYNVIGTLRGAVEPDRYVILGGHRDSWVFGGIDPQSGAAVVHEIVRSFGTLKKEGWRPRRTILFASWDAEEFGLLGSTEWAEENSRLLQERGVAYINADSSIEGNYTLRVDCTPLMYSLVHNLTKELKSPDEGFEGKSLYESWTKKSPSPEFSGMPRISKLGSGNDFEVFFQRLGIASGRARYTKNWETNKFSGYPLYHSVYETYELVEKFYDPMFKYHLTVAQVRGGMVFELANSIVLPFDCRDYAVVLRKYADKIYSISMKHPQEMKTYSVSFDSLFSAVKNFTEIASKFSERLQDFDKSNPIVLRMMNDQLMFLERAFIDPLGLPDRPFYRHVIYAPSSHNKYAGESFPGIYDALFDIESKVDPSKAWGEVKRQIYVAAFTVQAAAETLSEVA

As to `O=C(O)CC[C@H](NC(=O)N[C@@H](CCCCNC(=O)[C@H](Cc1ccc2ccccc2c1)NC(=O)[C@H]1CC[C@H](CNC(=O)CN2CCN(CC(=O)O)CCN(CC(=O)O)CCN(CC(=O)O)CC2)CC1)C(=O)O)C(=O)O` [PSMA-617], the inhibition constant (Ki) at PSMA is 2.34 ± 2.94 nM.

Take `CC(=O)[O-].CC(=O)[O-].[64Cu+2]` [^64Cu(OAc)2]: in series [1], the “proportion of the signal bound to plasma proteins” value is recorded as “greater than 90%”.

Turning to `O=C([O-])CN1CCN(CC(=O)[O-])CCN(CC(=O)NCC2CCC(C(=O)NC(Cc3ccc4ccccc4c3)C(=O)NCCCCC(NC(=O)NC(CCC(=O)O)C(=O)O)C(=O)O)CC2)CCN(CC(=O)O)CC1.[64Cu+2]` (centres unmarked) [^64Cu-PSMA-617], in series [2], the “log D” value is given as −1.93 ± 0.13. Moreover, in series [3] (2 h p.i.), the “signal corresponding to the intact product in blood” value was 20%, the “signal corresponding to the intact product in liver” value is 28% and the “signal corresponding to the intact product in urine” value is given as 5.2%. Further, the “signal corresponding to the intact product in serum” value in series [3] (after 5 min) is recorded as 71%.

In the case of `O=C(O)CCC(NC(=O)NC(CCCCNC(=O)C(Cc1ccc2ccccc2c1)NC(=O)C1CCC(CNC(=O)CN2CCN(CC(=O)O)CCN(CC(=O)O)CCN(CC(=O)O)CC2)CC1)C(=O)O)C(=O)O.[68Ga]` (centres unmarked) [^68Ga-PSMA-617, reference compound], the “Retained activity normalized to time 0” value in the series on LNCaP cells (efflux time 0.25 h) came out at 101.57%; with LNCaP cells (efflux time 0.50 h) it was 106.07%; in the series on LNCaP cells (efflux time 0.75 h) it was 97.22%; in the series with LNCaP cells (efflux time 1 h) it was 84.75%; with LNCaP cells (efflux time 2 h) it was 81.62%. For the same compound, in series [2], the “log D” value is recorded as −1.98. Also, the liver uptake in series [4] is reported as 0.67 ± 0.16 % IA/g.

For the compound `CN([O-])C(=O)CN1CCN(CC(=O)NCC2CCC(C(=O)NC(Cc3ccc4ccccc4c3)C(=O)NCCCCC(NC(=O)NC(CCC(=O)O)C(=O)O)C(=O)O)CC2)CCN(CC(=O)N(C)[O-])CCN(CC(=O)N(C)O)CC1.[Cu+2]` (centres unmarked) [^natCu-DOTHA2-PSMA], the IC50 was 11.3 ± 14.3 nM in series [5] (in competition with 64Cu-DOTHA2-PSMA, 1 h, reaction medium with 20 g/L BSA, read-out: IC50 on LNCaP); 21.4 nM in series [5] (with 10% BSA in RPMI, read-out: IC50); 9.08 nM in series [5] (with RPMI only, read-out: IC50).
